In ChEMBL document CHEMBL3769363, “Discovery of trace amine-associated receptor 1 ligands by molecular docking screening against a homology model” (Medchemcomm, 2015):
Activity calls are given as the source filed them. The rule behind the calls is not given here.

How the values were obtained:
[1] = molecular target: T1, Trace amine-associated receptor 1 (Homo sapiens) (UniProt Q96RJ0); test: Agonist activity at human TAAR1 receptor expressed in HEK293T cells cotransfected with beta-2 receptor assessed as cAMP production by BRET assay relative to beta-PEA; format: functional, cell-based; set-up: concentration or dose not given beside the values; settings: HEK-293T
T1 sequence (whole entry): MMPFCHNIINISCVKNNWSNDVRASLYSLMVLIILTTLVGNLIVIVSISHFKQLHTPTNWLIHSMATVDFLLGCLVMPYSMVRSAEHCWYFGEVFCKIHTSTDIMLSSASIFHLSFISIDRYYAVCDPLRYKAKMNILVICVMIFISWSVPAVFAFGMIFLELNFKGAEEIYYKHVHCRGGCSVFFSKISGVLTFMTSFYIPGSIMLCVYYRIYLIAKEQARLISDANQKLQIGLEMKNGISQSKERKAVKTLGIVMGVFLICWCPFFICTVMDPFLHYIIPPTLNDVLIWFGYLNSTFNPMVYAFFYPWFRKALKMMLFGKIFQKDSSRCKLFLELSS

[2] = molecular target: T2, Trace amine-associated receptor 1 (Homo sapiens, UniProt Q96RJ0); test: Agonist activity at human TAAR1 receptor expressed in HEK293T cells cotransfected with beta-2 receptor assessed as cAMP production by BRET assay; format: functional, cell-based, HEK-293T
T2 sequence (Q96RJ0 whole entry): T1 sequence (whole entry)

[3] = molecular target: T1, Trace amine-associated receptor 1 (Homo sapiens); test: Antagonist activity at human TAAR1 receptor expressed in HEK293T cells cotransfected with beta-2 receptor assessed as inhibition of beta-PEA-induced cAMP production at 100 uM by BRET assay; format: functional, cell-based; settings: HEK-293T
[4] = molecular target: T1, Trace amine-associated receptor 1 (Homo sapiens); test: Agonist activity at human TAAR1 receptor expressed in HEK293T cells cotransfected with beta-2 receptor assessed as cAMP production at 100 uM by BRET assay; format: functional, cell-based; settings: HEK-293T

Structure (SMILES)	Activity [1] [%]	EC50 [2] [µM]	Activity [3]	Activity [4]
Cn1c(CN)nc2ccccc21	21.6	> 100	–	–
CN(Cc1ccc(Br)cc1)Cc1cccc(C(N)=O)c1	–	–	Active	–
N=C(N)c1cccc(COc2ccccc2)c1	–	–	Active	–
N=C(N)N/N=C/c1c(Cl)cccc1Cl [GUANABENZ]	35.5	0.09	–	–
Cn1c(C2CCCCN2)nc2ccccc21 (centres undefined)	38.4	> 100	–	–
Fc1ccc2c(CCNCc3cnn(-c4ccccc4)c3)c[nH]c2c1	–	–	Active	–
Cc1cccc(CCN(C)C[C@H](O)c2ccccc2)c1	67.5	51.6	–	Active
CCn1c(C2CCCN2)nc2ccccc21 (centres undefined)	22.1	> 100	–	–
N=C(N)N/N=C1\CCCc2ccccc21	–	–	Active	–
C#CCN[C@H](C)Cc1ccccc1	–	–	–	Active
N=C(N)N/N=C/c1cccc(OCc2ccccc2)c1	75	–	–	–
COc1ccc2[nH]cc(CN(C)C)c2c1	–	–	–	Active
N=C(N)N/N=C/c1ccc2c(c1)OCO2	6.9	> 100	–	–
c1ccc2sc(C3CCCN3)nc2c1 (centres undefined)	42.9	> 100	–	–
Cn1c(C2CCCN2)nc2ccccc21 (centres undefined)	55.8	18.1	–	Active
COc1cccc(/C=N/N=C(N)N)c1	–	1.23	–	–
CNCc1nc2ccccc2n1C(F)F	–	–	–	Active
CC(C)n1c(C2CCCN2)nc2ccccc21 (centres undefined)	43.4	12.1	–	–
NCCc1ccccc1 [PHENETHYLAMINE]	–	0.11	–	–
c1ccc2c(c1)nnn2C[C@H]1CCCN1	–	–	–	Active
C[C@@H](CNCCO)c1ccccc1	–	–	–	Active
CCC(=O)/N=C(\N)Nc1nc2ccccc2o1	–	–	Active	–
N=C(N)N/N=C/c1ccccc1	85.5	0.17	–	–
NC(N)=N/N=C/c1cccc(OCc2ccccc2)c1	–	> 100	–	–
N=C(N)N/N=C/c1cccc(Br)c1	-5.4	–	–	–
COc1cccc(/C=N/NC(=N)N)c1	24	–	Active	Active
C=CCn1cc(CN[C@H](C)Cn2ccc3ccccc32)c(C)n1	–	–	Active	–
CN(Cn1ncc2cc([N+](=O)[O-])ccc21)[C@@H]1CCc2ccccc21	–	–	–	Active
NC(N)=N/N=C/c1cccc(Br)c1	–	> 100	–	–
Clc1ccc(CNCc2ccc(Cn3cncn3)cc2)c(Cl)c1	–	–	Active	–
